According to patent US20160075689A1, “POLYMERASE, ENDONUCLEASE, AND HELICASE INHIBITORS AND METHODS OF USING THEREOF” (THE BOARD OF TRUSTEES OF THE UNIVERSITY OF ARKANSAS, priority 2013, published 2016):
Values joined by “and” are separate entries in the source; they are usually repeats but may differ in a detail not shown here. Identical values can stand only once.

Tests used:
HCV NS3 helicase = biological target: T1, HCV NS3 helicase (Hepatitis C virus genotype 1b, UniProt P26663); assay: Fluorescence-based helicase assay; assay type: biochemical; details: IC50 for inhibition of NS3 helicase, mean ± standard deviation of three data sets
T1 construct: analyze the helicase activity of NS3 helicase in the presence of the compounds; made in house
T1 sequence (P26663 1027-1657): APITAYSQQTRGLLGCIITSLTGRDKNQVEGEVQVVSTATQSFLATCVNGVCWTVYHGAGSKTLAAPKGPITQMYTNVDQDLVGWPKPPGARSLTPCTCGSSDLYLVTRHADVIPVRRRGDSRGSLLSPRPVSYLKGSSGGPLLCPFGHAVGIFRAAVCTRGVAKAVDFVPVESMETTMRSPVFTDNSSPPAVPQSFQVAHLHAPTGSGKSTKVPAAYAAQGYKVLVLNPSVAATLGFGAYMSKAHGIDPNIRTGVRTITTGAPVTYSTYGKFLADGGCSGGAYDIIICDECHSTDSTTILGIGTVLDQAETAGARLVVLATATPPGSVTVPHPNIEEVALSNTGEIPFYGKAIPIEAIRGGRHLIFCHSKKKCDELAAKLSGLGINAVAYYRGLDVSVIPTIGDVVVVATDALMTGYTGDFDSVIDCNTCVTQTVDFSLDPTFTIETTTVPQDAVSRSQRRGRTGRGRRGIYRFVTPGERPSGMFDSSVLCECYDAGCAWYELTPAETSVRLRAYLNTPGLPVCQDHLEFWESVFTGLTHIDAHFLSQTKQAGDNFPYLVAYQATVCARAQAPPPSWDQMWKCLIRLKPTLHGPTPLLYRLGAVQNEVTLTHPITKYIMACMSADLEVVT
Method: A library of compounds was screened using a previously validated quantitative assay that measures helicase activity over time. The assay relies upon helicase-catalyzed displacement of a fluorescently-labeled oligonucleotide (FIG. 13A). The concentration of enzyme and compounds used was 250 nM and 20 μM respectively. The experiments were performed in triplicate. […] Three potential helicase inhibitors were identified using the fluorescence based assay. […] The inhibitor compounds identified in our screen were ITBA-3-79, ITBA-3-82 and ITBA-3-85 (FIG. 14A). […] The IC50 value for ITBA-3-79, ITBA-3-82 and ITBA-3-85-mediated inhibition of NS3 helicase ranged˜20 μM (FIG. 14C). The ATPase activity of NS3 (50 μM) was analyzed in the presence of ITBA-3-79, ITBA-3-82 and ITBA-3-85 using a coupled spectrophotometric assay (Raney and Benkovic 1995, (FIG. 15). The protease activity of NS3 was analyzed in the presence of ITBA-3-79, ITBA-3-82 and ITBA-3-85 by using 50 nM NS3-4A and 100 nM substrate (Ac-Asp-Glu-Asp-EDANS-Glu-Glu-Abu-L-Lactoyl-Ser-Lys DABCYL-NH2, FIG. 15. The NS3 helicase activity was analyzed in the presence of 25 μM ITBA-3-79, ITBA-3-82 and ITBA-3-85 (FIG. 16).
A fluorescence based quantitative assay that measures helicase activity over time was employed to screen the compounds. The concentration of enzyme and compounds used was 250 nM and 20 μM respectively. Helicase catalyzes the unwinding of a FAM-labeled dsDNA and the resulting increase in fluorescence is plotted (λex-485 nm; λem, −528 nm). The slope of the initial part of the plot was used to calculate the percentage helicase activity. […] The IC50 value for ITBA-3-79, ITBA-3-82 and ITBA-3-85-mediated inhibition of NS3 helicase was determined using the same assay.

[1] = test system: EndoG-expressing PC3 cells; assay: Cytoprotection against Docetaxel-induced cell death, LDH release and TUNEL assays; assay type: cell-based, human; details: Docetaxel 80 μM, inhibitor 50 μM
Method: Docetaxel is an anti-cancer drug used to treat prostate cancer. Human invasive prostate cancer PC3 cells are known to be resistant to anticancer drugs. […] The resulting EndoG-expressing PC3 cells were exposed with Docetaxel (80 μM) in the absence or presence of the inhibitors, PNR-3-80 or PNR-3-82 (50 μM each). The cell death was measured by using two methods, LDH release assay and TUNEL assay. […]

SOD = SOD activity in NRK-52E cell extract; assay type: biochemical; details: 0.1 μM and 10 μM
Method: (§1) As a follow up to Example 8, the effects of the EndoG inhibitors PNR-3-80 and PNR-3-82, at 0.1 μM and 10 μM each, on the activities of four other enzymes including RNase A, protease, LDH, and SOD in NRK-52E cell extract were examined. NRK-52E cells were grown to ˜80% confluence in […]. The medium was aspirated and the cells were rinsed with ice cold 1×PBS, pH 7.4. The cells were lysed in 50 mM Tris-HCl, pH 7.4, 150 mM NaCl, 1% Triton X-100 for 10 min on ice and then briefly sonicated. Cell debris was removed by centrifugation at 13,000×g for 10 min at 4° C. The supernatant was collected and stored at −80° C. until use. LDH, Protease, Superoxide dismutase (SOD), and Ribonuclease A (RNase A) activities were measured by using CytoTox 96® Non-Radioactive Cytotoxicity Assay kit (Promega, Madison, Wis.), Protease Fluorescent Detection kit (Sigma-Aldrich, Saint Louis, Mo.), SOD determination kit (Sigma-Aldrich, Saint Louis, Mo.), and Ribonuclease A Detection kit (Sigma-Aldrich, Saint Louis, Mo.), respectively, according to the manufacturer's instructions.

EndoG = biological target: T2, EndoG (Homo sapiens, UniProt Q14249); assay: Plasmid incision assay; assay type: biochemical; details: agarose gel, FIG. 9
T2 sequence (Q14249 49-297): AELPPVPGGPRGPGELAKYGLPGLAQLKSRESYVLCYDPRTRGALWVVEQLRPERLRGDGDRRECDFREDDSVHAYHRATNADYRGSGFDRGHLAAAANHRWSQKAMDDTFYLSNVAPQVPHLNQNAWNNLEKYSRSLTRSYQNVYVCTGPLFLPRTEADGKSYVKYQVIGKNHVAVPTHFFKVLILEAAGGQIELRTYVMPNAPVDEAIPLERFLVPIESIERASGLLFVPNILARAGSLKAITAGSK
Method: A reaction mixture was prepared containing 0.5 μg pECFP plasmid DNA, 2 mM CaCl2, 5 mM MgCl2, 10 mM Tris-HCl, pH 7.4, 0.5 mM dithiothreitol. The test compound [50 ng in DMSO (1 μl)] was added. Recombinant EndoG was then added to the final concentration of 200 ng/ml and the reaction was incubated for 1 h at 37° C. The reaction was terminated by adding 2 μl of 10 mM Tris-HCl, pH 7.4, 1% SDS, 25 mM EDTA, 7.2 mM bromophenol blue. The samples were run in 1% agarose gel in Tris-acetate-EDTA buffer (40 mM Tris, 20 mM acetic acid, 1 mM EDTA, pH 8), at 7 V/cm for 35 min, and DNA was stained with ethidium bromide. An EagleEye scanning densitometer (Stratagene, La Jolla, Calif.) was utilized to quantify the relative amount of endonuclease-treated plasmid DNA present in a covalently-closed circular (supercoiled) DNA, open circular DNA, or linear DNA, or in a digested form.

NS3 helicase = biological target: T3, NS3 helicase (Hepatitis C virus genotype 1b, UniProt P26663); assay: Gel-based helicase assay; assay type: biochemical, HCV; details: standard helicase assay
T3 construct: analyze the helicase activity of NS3 helicase in the presence of the compounds; made in house
T3 sequence (P26663 1027-1657): as the sequence (P26663 1027-1657) above
Method: Benchtop unwinding assays were performed to analyze the helicase activity of NS3 helicase in the presence of the compounds. The unwinding reaction was initiated by mixing the right (N53, compound, assay buffer) and left (radiolabeled substrate, ATP, assay buffer) reactions, which was then quenched. The ssDNA product formed over time is separated from dsDNA substrate by 20% native PAGE. The ratio of dsDNA substrate to ssDNA product is quantified using ImageQuant and the fraction of substrate unwound at each time-point is plotted as a function of time using Kaleidagraph software.

RNase A = assay: Ribonuclease A activity in NRK-52E cell extract; assay type: biochemical; details: 0.1 μM and 10 μM
Method: as §1

protease = assay: Protease activity in NRK-52E cell extract; assay type: biochemical; details: 0.1 μM and 10 μM
Method: as §1

## COc1ccc2c(c1)c(C=C1C(=O)NC(=S)NC1=O)cn2C(=O)c1ccc2ccccc2c1 [PNR-3-82]
HCV NS3 helicase
  IC50: ~20 µM and 21.4 µM
[1]
  cytoprotection against Docetaxel-induced cell death: cytoprotective
SOD
  SOD activity: none of the two tested compounds had any inhibiting activity
EndoG
  protection of supercoiled plasmid DNA from degradation by EndoG: significantly protected the plasmid DNA from degradation
NS3 helicase
  NS3 helicase activity, gel electrophoresis: confirmed the inhibition
RNase A
  RNase A activity: none of the two tested compounds had any inhibiting activity
protease
  protease activity: none of the two tested compounds had any inhibiting activity
